Reference: article PMC4460250, “Systems Pharmacology Dissecting Holistic Medicine for Treatment of Complex Diseases: An Example Using Cardiocerebrovascular Diseases Treated by TCM” (Evidence-based Complementary and Alternative Medicine : eCAM, 2015)

Tests used:
[1] = in vivo
[2] = in vivo; cited from earlier work

Row | SMILES | Class(High: HIA value ≥0.7; Low: HIA value < 0.7) [1] | HIA(Human Intestinal Absorption) [2]
1 | COC(=O)C(c1ccccc1Cl)N1CCc2sccc2C1 (stereo in doubt) [Clopidogrel(R)] | Low (key: High: HIA value ≥0.7; Low: HIA value < 0.7) | 0.5
2 | CN1C(=O)CCC1c1cccnc1 (stereo in doubt) [Cotinine(R)] | High (key: High: HIA value ≥0.7; Low: HIA value < 0.7) | 0.97
3 | CCC(C(N)=O)N1CCCC1=O (stereo in doubt) [Levetiracetam(R)] | High (key: High: HIA value ≥0.7; Low: HIA value < 0.7) | 1
4 | CN(Cc1cnc2nc(N)nc(N)c2n1)c1ccc(C(=O)NC(CCC(=O)O)C(=O)O)cc1 (stereo in doubt) [Methotrexate(R)] | High (key: High: HIA value ≥0.7; Low: HIA value < 0.7) | 1
5 | CN1CCCC1c1cccnc1 (stereo in doubt) [Nicotine(R)] | High (key: High: HIA value ≥0.7; Low: HIA value < 0.7) | 1
6 | CC(C)(C)NCC(O)COc1ccccc1C1CCCC1 (stereo in doubt) [Penbutolol(R)] | High (key: High: HIA value ≥0.7; Low: HIA value < 0.7) | 1
7 | CCCNC1CCc2nc(N)sc2C1 (stereo in doubt) [Pramipexole(R)] | High (key: High: HIA value ≥0.7; Low: HIA value < 0.7) | 0.8
8 | CCN1CCCC1CNC(=O)c1c(OC)ccc(Br)c1OC (stereo in doubt) [Remoxipride(R)] | High (key: High: HIA value ≥0.7; Low: HIA value < 0.7) | 1
9 | CCOc1cc(CC(=O)NC(CC(C)C)c2ccccc2N2CCCCC2)ccc1C(=O)O (stereo in doubt) [Repaglinide(R)] | High (key: High: HIA value ≥0.7; Low: HIA value < 0.7) | 1
10 | C#CCN(C)C(C)Cc1ccccc1 (stereo in doubt) [Selegiline(S)] | High (key: High: HIA value ≥0.7; Low: HIA value < 0.7) | 1
11 | CC(C)(C)NCC(O)COc1nsnc1N1CCOCC1 (stereo in doubt) [Timolol(R)] | High (key: High: HIA value ≥0.7; Low: HIA value < 0.7) | 0.95
12 | CC(=O)NCCCS(=O)(=O)O [Acamprosate] | Low (key: High: HIA value ≥0.7; Low: HIA value < 0.7) | 0.11
13 | C[C@H]1O[C@H](O[C@H]2[C@H](O)[C@@H](O)[C@@H](O[C@H]3[C@H](O)[C@@H](O)C(O)O[C@@H]3CO)O[C@@H]2CO)[C@H](O)[C@@H](O)[C@@H]1N[C@H]1C=C(CO)[C@@H](O)[C@H](O)[C@H]1O (stereo partly shown) [Acarbose] | Low (key: High: HIA value ≥0.7; Low: HIA value < 0.7) | 0.02
14 | CCCC(=O)Nc1ccc(OC[C@H](O)CNC(C)C)c(C(C)=O)c1 [Acebutolol(R)] | High (key: High: HIA value ≥0.7; Low: HIA value < 0.7) | 0.85
15 | CCCC(=O)Nc1ccc(OC[C@@H](O)CNC(C)C)c(C(C)=O)c1 [Acebutolol(S)] | High (key: High: HIA value ≥0.7; Low: HIA value < 0.7) | 0.85
16 | CC(C)(C)NC[C@H](O)c1ccc(O)c(CO)c1 [Albuterol(R)] | High (key: High: HIA value ≥0.7; Low: HIA value < 0.7) | 0.83
17 | CC(C)NC[C@@H](O)COc1ccc(COCCOC(C)C)cc1 [Bisoprolol(R)] | High (key: High: HIA value ≥0.7; Low: HIA value < 0.7) | –
18 | CC(C)NC[C@H](O)COc1ccc(COCCOC(C)C)cc1 [Bisoprolol(S)] | High (key: High: HIA value ≥0.7; Low: HIA value < 0.7) | –
19 | ClC(Cl)Cl [Chloroform] | High (key: High: HIA value ≥0.7; Low: HIA value < 0.7) | –
20 | CN1C(=O)CN=C(c2ccccc2)c2cc(Cl)ccc21 [Diazepam] | High (key: High: HIA value ≥0.7; Low: HIA value < 0.7) | –

Row | SMILES | Class(High: HIA value ≥0.7; Low: HIA value < 0.7) [1] | HIA(Human Intestinal Absorption) [2]
21 | O=C(O)Cc1ccccc1Nc1c(Cl)cccc1Cl [Diclofenac] | High (key: High: HIA value ≥0.7; Low: HIA value < 0.7) | –
22 | CCOc1ccc2c3c1O[C@H]1[C@@H](O)C=C[C@H]4[C@@H](C2)N(C)CC[C@@]341 [Ethylmorphine] | High (key: High: HIA value ≥0.7; Low: HIA value < 0.7) | –
23 | Cc1cnc(C(=O)NCCc2ccc(S(=O)(=O)NC(=O)NC3CCCCC3)cc2)cn1 [Glipizide] | High (key: High: HIA value ≥0.7; Low: HIA value < 0.7) | –
24 | NS(=O)(=O)c1cc2c(cc1Cl)NCNS2(=O)=O [Hydrochlorothiazide] | Low (key: High: HIA value ≥0.7; Low: HIA value < 0.7) | –
25 | C#C[C@]1(O)CC[C@H]2[C@@H]3CCC4=CC(=O)CC[C@@H]4[C@H]3CC[C@@]21CC [Levonorgestrel] | High (key: High: HIA value ≥0.7; Low: HIA value < 0.7) | –
26 | CCN(CC)CCNC(=O)c1cc(Cl)c(N)cc1OC [Metoclopramide] | High (key: High: HIA value ≥0.7; Low: HIA value < 0.7) | –
27 | Nc1cc(N2CCCCC2)nc(N)[n+]1[O-] [Minoxidil] | High (key: High: HIA value ≥0.7; Low: HIA value < 0.7) | –
28 | CN1CC[C@]23c4c5ccc(O)c4O[C@H]2[C@@H](O)C=C[C@H]3[C@H]1C5 [Morphine] | High (key: High: HIA value ≥0.7; Low: HIA value < 0.7) | –
29 | CCN(CC)CCOC(=O)C(Cc1cccc2ccccc12)CC1CCCO1 (stereo not shown) [Nafronyl] | High (key: High: HIA value ≥0.7; Low: HIA value < 0.7) | –
30 | O=C1CN=C(c2ccccc2)c2cc(Cl)ccc2N1 [Nordazepam] | High (key: High: HIA value ≥0.7; Low: HIA value < 0.7) | –
31 | C#CC1(O)CC[C@H]2[C@@H]3CCC4=CC(=O)CC[C@@H]4[C@H]3CC[C@@]21CC (stereo partly shown) [Norgestrel] | High (key: High: HIA value ≥0.7; Low: HIA value < 0.7) | –
32 | O=C1Nc2ccc(Cl)cc2C(c2ccccc2)=N[C@@H]1O [Oxazepam(R)] | High (key: High: HIA value ≥0.7; Low: HIA value < 0.7) | –
33 | O=C1Nc2ccc(Cl)cc2C(c2ccccc2)=N[C@H]1O [Oxazepam(S)] | High (key: High: HIA value ≥0.7; Low: HIA value < 0.7) | –
34 | C[C@]12C=CC(=O)C=C1CC[C@@H]1[C@@H]2[C@@H](O)C[C@@]2(C)[C@H]1CC[C@]2(O)C(=O)CO [Prednisolone] | High (key: High: HIA value ≥0.7; Low: HIA value < 0.7) | –
35 | CCCc1cc(=O)[nH]c(=S)[nH]1 [Propylthiouracil] | High (key: High: HIA value ≥0.7; Low: HIA value < 0.7) | –
36 | O=C(O)c1ccccc1O [Salicylic acid] | High (key: High: HIA value ≥0.7; Low: HIA value < 0.7) | –
37 | Cc1cc(NS(=O)(=O)c2ccc(N)cc2)no1 [Sulfamethoxazole] | High (key: High: HIA value ≥0.7; Low: HIA value < 0.7) | –
38 | CN1C(=O)[C@@H](O)N=C(c2ccccc2)c2cc(Cl)ccc21 [Temazepam(R)] | High (key: High: HIA value ≥0.7; Low: HIA value < 0.7) | –
39 | CN1C(=O)[C@H](O)N=C(c2ccccc2)c2cc(Cl)ccc21 [Temazepam(S)] | High (key: High: HIA value ≥0.7; Low: HIA value < 0.7) | –
40 | O=P(O)(O)C(Sc1ccc(Cl)cc1)P(=O)(O)O [Tiludronic_acid] | – | 0.06

Row | SMILES | Class(High: HIA value ≥0.7; Low: HIA value < 0.7) [1] | HIA(Human Intestinal Absorption) [2]
41 | NC[C@H]1O[C@H](O[C@H]2[C@H](O)[C@@H](O[C@H]3O[C@H](CO)[C@@H](O)[C@H](N)[C@H]3O)[C@H](N)C[C@@H]2N)[C@H](N)C[C@@H]1O [Tobramycin] | – | 0.01
42 | Cc1ccc(C(=O)c2ccc(CC(=O)O)n2C)cc1 [Tolmetin] | – | 0.99
43 | Cc1ccc(O)c([C@H](CCN(C(C)C)C(C)C)c2ccccc2)c1 [Tolterodine] | – | 0.77
44 | CC1(C)O[C@@H]2[C@@H](CO[C@@]3(COS(N)(=O)=O)OC(C)(C)O[C@@H]23)O1 [Topiramate] | – | 0.86
45 | Cc1cccc(Nc2ccncc2S(=O)(=O)NC(=O)NC(C)C)c1 [Torasemide] | – | 0.96
46 | CN(C)CCOc1ccc(/C(=C(/CCCl)c2ccccc2)c2ccccc2)cc1 [Toremifene] | – | 1
47 | NC[C@H]1CC[C@H](C(=O)O)CC1 [Tranexamic_acid] | – | 0.55
48 | C[C@]12C=CC(=O)C=C1CC[C@H]1[C@@H]3C[C@@H](O)[C@](O)(C(=O)CO)[C@@]3(C)C[C@H](O)[C@@]12F [Triamcinolone] | – | 1
49 | Cc1nnc2n1-c1ccc(Cl)cc1C(c1ccccc1Cl)=NC2 [Triazolam] | High (key: High: HIA value ≥0.7; Low: HIA value < 0.7) | –
50 | COc1cc(Cc2cnc(N)nc2N)cc(OC)c1OC [Trimethoprim] | – | 0.97
51 | COc1ccccc1N1CCN(CCCNc2cc(=O)n(C)c(=O)n2C)CC1 [Urapidil] | – | 0.78
52 | CCCC(CCC)C(=O)O [Valproic_acid] | – | 0.98
53 | C=CC(N)CCC(=O)O (stereo not shown) [Vigabatrin] | – | 0.58
54 | CC1=C(/C=C/C(C)=C/C=C/C(C)=C/CO)C(C)(C)CCC1 [Vitamin_A] | – | 0.8
55 | Nc1ccn([C@H]2CC[C@@H](CO)O2)c(=O)n1 [Zalcitabine] | – | 0.85
56 | CC(=O)N[C@H]1[C@H]([C@H](O)[C@H](O)CO)OC(C(=O)O)=C[C@@H]1N=C(N)N [Zanamivir] | – | 0.02
57 | Cc1cn([C@H]2C[C@H](N=[N+]=[N-])[C@@H](CO)O2)c(=O)[nH]c1=O [Zidovudine] | – | 1
58 | O=C1Cc2cc(CCN3CCN(c4nsc5ccccc45)CC3)c(Cl)cc2N1 [Ziprasidone] | – | 0.6
59 | Cc1cc(CC(=O)O)n(C)c1C(=O)c1ccc(Cl)cc1 [Zomepirac] | – | 1
60 | NS(=O)(=O)Cc1noc2ccccc12 [Zonisamide] | – | 1
